Experimental data as given in US9290515B2, “Cephem derivative having catechol group” (SHIONOGI & CO., LTD., priority 2011, dated 2016).
Converted amounts (≈) assume the structure as drawn. Like-named read-outs stand apart in the source and are kept apart here.

Legend:
Type in all cases: cell-based
[1] = system: K. pneumoniae ATCC 700603_SHV18; assay: MIC by broth microdilution (CLSI), K. pneumoniae ATCC 700603; conditions: Klebsiella pneumoniae
Description: (§1) Measurement of a minimum growth inhibition concentration (MIC: μg/mL) was performed according to CLSI (Clinical and Laboratory Standards Institute) method, by broth microdilution method, using an inoculation microbe amount of 10000 cfu/well and cation-adjusted Mueller Hinton broth containing human-derived 20 μM apo-transferrin as a test medium.

[2] = system: P. aeruginosa SR27001(MDRP, IMP-1+); assay: MIC by broth microdilution (CLSI), P. aeruginosa SR27001; conditions: Pseudomonas aeruginosa, read-out: minimum growth inhibition concentration (MIC)
Description: as §1

[3] = system: P. aeruginosa SR27060(metallo); assay: MIC by broth microdilution (CLSI), P. aeruginosa SR27060; conditions: Pseudomonas aeruginosa; P. aeruginosa SR27060, IMP-1, MBL producing carbapenem-resistant strain; 10000 cfu/well; cation-adjusted Mueller Hinton broth with 20 μM human apo-transferrin; read-out: minimum growth inhibition concentration (MIC)
Description: as §1

P. aeruginosa SR24 = assay: MIC by broth microdilution (CLSI), P. aeruginosa SR24; conditions: Pseudomonas aeruginosa
Description: as §1

[4] = system: E. coli ATCC BAA-196_TEM-10; assay: MIC by broth microdilution (CLSI), E. coli ATCC BAA-196; conditions: Escherichia coli
Description: as §1

A. baumannii SR24396 = assay: MIC by broth microdilution (CLSI), A. baumannii SR24396; conditions: Acinetobacter baumannii, 10000 cfu/well, cation-adjusted Mueller Hinton broth with 20 μM human apo-transferrin, read-out: minimum growth inhibition concentration (MIC)
Description: as §1

[5] = ATCC700603, K. pneumoniae ATCC 700603, SHV-18, ESBL producing strain, 10000 cfu/well, cation-adjusted Mueller Hinton broth with 20 μM human apo-transferrin, read-out: minimum growth inhibition concentration (MIC)
[6] = P. aeruginosa SR27001, MDRP, IMP-1, MBL producing carbapenem-resistant strain, 10000 cfu/well, cation-adjusted Mueller Hinton broth with 20 μM human apo-transferrin
[7] = P. aeruginosa SR24, Ceftazidime-sensitive strain, 10000 cfu/well, cation-adjusted Mueller Hinton broth with 20 μM human apo-transferrin, read-out: minimum growth inhibition concentration (MIC)
[8] = ATCCBAA196, E. coli ATCC BAA-196, TEM-10, ESBL producing strain, 10000 cfu/well, cation-adjusted Mueller Hinton broth with 20 μM human apo-transferrin, read-out: minimum growth inhibition concentration (MIC)
[9] = ATCC700603, read-out: minimum growth inhibition concentration (MIC)
[10] = SR24, read-out: minimum growth inhibition concentration (MIC)
[11] = ATCCBAA196, read-out: minimum growth inhibition concentration (MIC)

Row | SMILES | MIC [1, 5] [µg/mL] | MIC [2, 6] [µg/mL] | MIC [3] [µg/mL] | MIC (P. aeruginosa SR24; [7]) [µg/mL] | MIC [4, 8] [µg/mL] | MIC (A. baumannii SR24396) [µg/mL] | MIC [1, 9] [µg/mL] | MIC [2] [µg/mL] | MIC (P. aeruginosa SR24; [10]) [µg/mL] | MIC [4, 11] [µg/mL]
1 | C[N+]1(CC2=C(C(=O)[O-])N3C(=O)[C@@H](NC(=O)/C(=N\OC(CNC(=O)c4ccc(O)c(O)c4Cl)C(=O)[O-])c4csc(N)n4)[C@H]3SC2)CCCC1.[Na+] (stereo partly drawn) [Compound I-8] | 1 | 8 | 4 | 0.125 | 0.5 | 0.063 |  |  |  | 
2 | Nc1nc(/C(=N/OC(CNC(=O)c2ccc(O)c(O)c2Cl)C(=O)[O-])C(=O)N[C@@H]2C(=O)N3C(C(=O)[O-])=C(C[N+]45CCCC4CCC5)CS[C@H]23)c(Cl)s1.[Na+] (stereo partly drawn) [Compound I-28] | 1 | 8 |  | 0.25 | 0.5 |  |  |  |  | 
3 | CC(C)(O/N=C(\C(=O)N[C@@H]1C(=O)N2C(C(=O)[O-])=C(C[N@+]3(C)[C@@H]4CC[C@H]3C[C@@H](N)C4)CS[C@H]12)c1ccc(O)c(O)c1Cl)C(=O)O [Compound I-20] |  |  | 4 (≈ 6.13 µM) |  | 2 (≈ 3.07 µM) |  |  |  |  | 
4 | NCC[N+]1(CC2=C(C(=O)[O-])N3C(=O)[C@@H](NC(=O)/C(=N\OC(CNC(=O)c4ccc(O)c(O)c4Cl)C(=O)O)c4nc(N)sc4Cl)[C@H]3SC2)CCCC1 (stereo partly drawn) [Compound I-16] | 1 (≈ 1.27 µM) | 2 (≈ 2.54 µM) |  | 0.25 (≈ 0.317 µM) | 0.125 (≈ 0.159 µM) |  |  |  |  | 
5 | C[N+]1(CC2=C(C(=O)[O-])N3C(=O)[C@@H](NC(=O)/C(=N\OC(CNC(=O)c4ccc(O)c(O)c4Cl)C(=O)[O-])c4csc(N)n4)[C@H]3SC2)[C@@H]2CCC[C@H]1CC2.[Na+] (stereo partly drawn) [Compound I-10] |  |  |  |  |  |  | 0.5 | 2 | 0.25 | 1
6 | Nc1nc(/C(=N/OC[C@H](NC(=O)c2ccc(O)c(O)c2Cl)C(=O)[O-])C(=O)N[C@@H]2C(=O)N3C(C(=O)[O-])=C(C[n+]4cccc5c4CCC5)CS[C@H]23)cs1.[Na+] [Compound I-3] |  | 4 | 1 | 0.25 | 1 | 0.125 |  |  |  | 
7 | Nc1nc(/C(=N/O[C@@H](CNC(=O)c2ccc(O)c(O)c2Cl)C(=O)[O-])C(=O)N[C@@H]2C(=O)N3C(C(=O)[O-])=C(C[N+]45CCC(CNC(=O)CC[C@H](N)C(=O)O)(CC4)CC5)CS[C@H]23)cs1.[Na+] [Compound I-12] | 1 | 4 |  | 0.25 | 2 |  |  |  |  | 
8 | C[N+]1(CC2=C(C(=O)[O-])N3C(=O)[C@@H](NC(=O)/C(=N\OC(CNC(=O)c4ccc(O)c(O)c4Cl)C(=O)O)c4csc(N)n4)[C@H]3SC2)[C@@H]2CC[C@H]1C[C@@H](N)C2 (stereo partly drawn) [Compound I-6] | 0.125 (≈ 0.16 µM) | 0.25 (≈ 0.321 µM) | 0.25 (≈ 0.321 µM) | 0.125 (≈ 0.16 µM) | 0.25 (≈ 0.321 µM) | ≤ 0.031 |  |  |  | 
9 | Nc1nc(/C(=N/OC(CNC(=O)c2ccc(O)c(O)c2Cl)C(=O)[O-])C(=O)N[C@@H]2C(=O)N3C(C(=O)[O-])=C(C[N+]4(CCNC(=O)C[C@@H](N)CC(=O)O)CCCC4)CS[C@H]23)c(Cl)s1.[Na+] (stereo partly drawn) [Compound I-30] | 2 | 8 |  | 0.25 | 0.5 |  |  |  |  | 
10 | C[N+]1(CC2=C(C(=O)[O-])N3C(=O)[C@@H](NC(=O)/C(=N\OC[C@H](NC(=O)c4ccc(O)c(O)c4Cl)C(=O)O)c4csc(N)n4)[C@H]3SC2)[C@@H]2CC[C@H]1C[C@@H](N)C2 (stereo partly drawn) [Compound I-1] | 2 (≈ 2.57 µM) | 0.5 (≈ 0.642 µM) | 0.25 (≈ 0.321 µM) | 0.125 (≈ 0.16 µM) | 0.25 (≈ 0.321 µM) | ≤ 0.031 |  |  |  | 
11 | C[N+]1(CC2=C(C(=O)[O-])N3C(=O)[C@@H](NC(=O)/C(=N\OC(CNC(=O)c4ccc(O)c(O)c4Cl)C(=O)[O-])c4csc(N)n4)[C@H]3SC2)[C@@H]2CC[C@H]1C[C@@H](NC(=O)CC[C@H](N)C(=O)O)C2.[Na+] (stereo partly drawn) [Compound I-26] |  |  |  |  |  |  | 1 | 4 | 1 | 1
12 | Nc1nc(/C(=N/OC(C[C@H](NC(=O)c2ccc(O)c(O)c2Cl)C(=O)[O-])C(=O)[O-])C(=O)N[C@@H]2C(=O)N3C(C(=O)[O-])=C(C[N+]4(CCNC(=O)CC[C@H](N)C(=O)O)CCCC4)CS[C@H]23)cs1.[Na+].[Na+] (stereo partly drawn) [Compound I-32] | 1 | 2 |  | 0.25 | 0.5 |  |  |  |  | 
13 | C[N+]1(CC2=C(C(=O)[O-])N3C(=O)[C@@H](NC(=O)/C(=N\O[C@@H](CNC(=O)c4ccc(O)c(O)c4Cl)C(=O)[O-])c4csc(N)n4)[C@H]3SC2)CC2CCCC2C1.[Na+] (stereo partly drawn) [Compound I-11] | 4 | 4 |  | 0.25 | 1 |  |  |  |  | 
14 | Nc1nc(/C(=N/OC[C@H](NC(=O)c2ccc(O)c(O)c2Cl)C(=O)[O-])C(=O)N[C@@H]2C(=O)N3C(C(=O)[O-])=C(Cn4ccc(=O)c(O)c4)CS[C@H]23)cs1.[Na+].[Na+] [Compound I-5] |  |  |  |  | 8 | ≤ 0.031 |  |  |  | 
15 | Nc1nc(/C(=N/OC(CNC(=O)c2ccc(O)c(O)c2Cl)C(=O)[O-])C(=O)N[C@@H]2C(=O)N3C(C(=O)[O-])=C(C[N+]4(CCNC(=O)C[C@@H](N)CC(=O)O)CCCC4)CS[C@H]23)cs1.[Na+] (stereo partly drawn) [Compound I-27] | 0.5 | 4 |  | 0.25 | 2 |  |  |  |  | 
16 | CC1(C)CCc2ccc[n+](CC3=C(C(=O)[O-])N4C(=O)[C@@H](NC(=O)/C(=N\O[C@@H](CNC(=O)c5ccc(O)c(O)c5Cl)C(=O)[O-])c5csc(N)n5)[C@H]4SC3)c21.[Na+] [Compound I-14] | 1 |  |  | 0.5 | 0.5 |  |  |  |  | 
17 | Nc1nc(/C(=N/OC(CNC(=O)c2ccc(O)c(O)c2Cl)C(=O)[O-])C(=O)N[C@@H]2C(=O)N3C(C(=O)[O-])=C(C[N+]4(CCNC(=O)CC[C@H](N)C(=O)O)CCCC4)CS[C@H]23)cs1.[Na+] (stereo partly drawn) [Compound I-25] | 1 | 4 |  | 0.5 | 2 |  |  |  |  | 
18 | Nc1nc(/C(=N/OC(CNC(=O)c2ccc(O)c(O)c2Cl)C(=O)[O-])C(=O)N[C@@H]2C(=O)N3C(C(=O)[O-])=C(C[N+]4(CCNC(=O)CC[C@H](N)C(=O)O)CCCC4)CS[C@H]23)c(Cl)s1.[Na+] (stereo partly drawn) [Compound I-29] | 1 | 2 |  | 0.5 | 0.5 |  |  |  |  | 
19 | NCC[N+]1(CC2=C(C(=O)[O-])N3C(=O)[C@@H](NC(=O)/C(=N\OC[C@H](NC(=O)c4ccc(O)c(O)c4Cl)C(=O)O)c4csc(N)n4)[C@H]3SC2)CCCC1 [Compound I-2] | 4 (≈ 5.31 µM) | 0.25 (≈ 0.332 µM) | 0.125 (≈ 0.166 µM) | 0.125 (≈ 0.166 µM) | 0.25 (≈ 0.332 µM) | 0.063 (≈ 0.0836 µM) |  |  |  | 
20 | NCC[N+]1(CC2=C(C(=O)[O-])N3C(=O)[C@@H](NC(=O)/C(=N\OC(CNC(=O)c4ccc(O)c(O)c4Cl)C(=O)O)c4csc(N)n4)[C@H]3SC2)CCCC1 (stereo partly drawn) [Compound I-7] | 0.063 (≈ 0.0836 µM) | 0.5 (≈ 0.664 µM) | 0.125 (≈ 0.166 µM) | 0.125 (≈ 0.166 µM) | 0.125 (≈ 0.166 µM) | ≤ 0.031 |  |  |  | 
21 | NCC[N+]1(CC2=C(C(=O)[O-])N3C(=O)[C@@H](NC(=O)/C(=N\OCc4ccc(O)c(O)c4C(=O)O)c4csc(N)n4)[C@H]3SC2)CCCC1 [Compound I-19] |  |  |  | 0.5 (≈ 0.756 µM) | 8 (≈ 12.1 µM) |  |  |  |  | 
22 | Nc1nc(/C(=N/OC(CNC(=O)c2ccc(O)c(O)c2Cl)C(=O)[O-])C(=O)N[C@@H]2C(=O)N3C(C(=O)[O-])=C(C[N+]45CCC(CC4)CC5)CS[C@H]23)c(Cl)s1.[Na+] (stereo partly drawn) [Compound I-15] | 1 | 4 |  | 0.25 | 1 |  |  |  |  | 
23 | Nc1nc(/C(=N/OC(CNC(=O)c2ccc(O)c(O)c2Cl)C(=O)[O-])C(=O)N[C@@H]2C(=O)N3C(C(=O)[O-])=C(C[N+]45CCCC4CCC5)CS[C@H]23)cs1.[Na+] (stereo partly drawn) [Compound I-24] | 0.5 | 16 |  | 0.5 | 1 |  |  |  |  | 
24 | CC1(C)CCc2ccc[n+](CC3=C(C(=O)[O-])N4C(=O)[C@@H](NC(=O)/C(=N\OC[C@H](NC(=O)c5ccc(O)c(O)c5Cl)C(=O)[O-])c5csc(N)n5)[C@H]4SC3)c21.[Na+] [Compound I-4] |  |  |  | 0.125 | 0.5 |  |  |  |  | 
25 | Nc1nc(/C(=N/OC(CNC(=O)c2ccc(O)c(O)c2Cl)C(=O)[O-])C(=O)N[C@@H]2C(=O)N3C(C(=O)[O-])=C(C[N+]45CCC(CC4)CC5)CS[C@H]23)ns1.[Na+] (stereo partly drawn) [Compound I-17] | 8 |  |  | 0.25 | 4 |  |  |  |  | 
26 | NCC[N+]1(CC2=C(C(=O)[O-])N3C(=O)[C@@H](NC(=O)/C(=N\OC(C[C@H](NC(=O)c4ccc(O)c(O)c4Cl)C(=O)[O-])C(=O)O)c4csc(N)n4)[C@H]3SC2)CCCC1.[Na+] (stereo partly drawn) [Compound I-31] | 0.25 | 1 |  | 0.5 | 0.25 |  |  |  |  | 
